Assay results from patent US7718808B2, “Thiazole derivatives” (Kyowa Hakko Kirin Co., Ltd., priority 2003, dated 2010).

Row | melting point | Compound
1 | 165 to 166 °C | COc1cccc(C(=O)Nc2nc(-c3ccco3)c(C(=O)c3ccccn3)s2)c1 [Compound 201, N-[4-(2-Furyl)-5-(pyridin-2-ylcarbonyl)thiazol-2-yl]-3-methoxybenzamide]
2 | 187 to 188 °C | COc1ccc(C(=O)Nc2nc(-c3ccco3)c(C(=O)c3ccccn3)s2)cc1 [Compound 202, N-[4-(2-Furyl)-5-(pyridin-2-ylcarbonyl)thiazol-2-yl]-4-methoxybenzamide]
3 | 169 to 170 °C | COc1ccc(C(=O)Nc2nc(-c3ccco3)c(C(=O)c3ccccn3)s2)cc1OC [Compound 203, N-[4-(2-Furyl)-5-(pyridin-2-ylcarbonyl)thiazol-2-yl]-3,4-dimethoxybenzamide]
4 | 172 to 180 °C (dec.) | COc1cc(C(=O)Nc2nc(-c3ccco3)c(C(=O)c3ccccn3)s2)cc(OC)c1OC [Compound 204, N-[4-(2-Furyl)-5-(pyridin-2-ylcarbonyl)thiazol-2-yl]-3,4,5-trimethoxybenzamide]
5 | 234 to 237 °C | N#Cc1cccc(C(=O)Nc2nc(-c3ccco3)c(C(=O)c3ccccn3)s2)c1 [Compound 205, 3-Cyano-N-[4-(2-furyl)-5-(pyridin-2-ylcarbonyl)thiazol-2-yl]benzamide]
6 | 168 to 169 °C | CC(=O)c1cccc(C(=O)Nc2nc(-c3ccco3)c(C(=O)c3ccccn3)s2)c1 [Compound 207, 3-Acetyl-N-[4-(2-furyl)-5-(pyridin-2-ylcarbonyl)thiazol-2-yl]benzamide]
7 | 204 to 206 °C | CC(=O)c1ccc(C(=O)Nc2nc(-c3ccco3)c(C(=O)c3ccccn3)s2)cc1 [Compound 208, 4-Acetyl-N-[4-(2-furyl)-5-(pyridin-2-ylcarbonyl)thiazol-2-yl]benzamide]
8 | 235 to 236 °C | O=C(Nc1nc(-c2ccco2)c(C(=O)c2ccccn2)s1)c1ccc2c(c1)OCO2 [Compound 209, N-[4-(2-Furyl)-5-(pyridin-2-ylcarbonyl)thiazol-2-yl]-3,4-methylenedioxybenzamide]
9 | 189 to 191 °C | O=C(Nc1nc(-c2ccco2)c(C(=O)c2ccccn2)s1)c1ccc2c(c1)OCCO2 [Compound 210, N-[4-(2-Furyl)-5-(pyridin-2-ylcarbonyl)thiazol-2-yl]-1,4-benzodioxane-6-carboxamide]
10 | 103 to 104 °C | O=C(c1ccccn1)c1sc(NC(=O)C2COc3ccccc3O2)nc1-c1ccco1 (centres unmarked) [Compound 211, N-[4-(2-Furyl)-5-(pyridin-2-ylcarbonyl)thiazol-2-yl]-1,4-benzodioxane-2-carboxamide]
11 | 187 to 188 °C | Cc1cc(C(=O)Nc2nc(-c3ccco3)c(C(=O)c3ccccn3)s2)ccn1 [Compound 212, N-[4-(2-Furyl)-5-(pyridin-2-ylcarbonyl)thiazol-2-yl]-2-methylpyridine-4-carboxamide]
12 | 219 to 225 °C | O=C(Nc1nc(-c2ccco2)c(C(=O)c2ccccn2)s1)c1ccnc(Cl)c1 [Compound 214, 2-Chloro-N-[4-(2-furyl)-5-(pyridin-2-ylcarbonyl)thiazol-2-yl]pyridine-4-carboxamide]
13 | 206 to 207 °C | O=C(Nc1nc(-c2ccco2)c(C(=O)c2ccccn2)s1)c1ccncc1Cl [Compound 215, 3-Chloro-N-[4-(2-furyl)-5-(pyridin-2-ylcarbonyl)thiazol-2-yl]pyridine-4-carboxamide]
14 | 254 to 258 °C | O=C(Nc1nc(-c2ccco2)c(C(=O)c2ccccn2)s1)c1cc(Cl)nc(Cl)c1 [Compound 216, 2,6-Dichloro-N-[4-(2-furyl)-5-(pyridin-2-ylcarbonyl)thiazol-2-yl]pyridine-4-carboxamide]
15 | 114 to 117 °C | COCCN(C)c1cc(C(=O)Nc2nc(-c3ccco3)c(C(=O)c3ccccn3)s2)ccn1 [Compound 217, N-[4-(2-Furyl)-5-(pyridin-2-ylcarbonyl)thiazol-2-yl]-2-[N-(2-methoxyethyl)-N-methylamino]pyridine-4-carboxamide]
16 | 136 to 141 °C | O=C(Nc1nc(-c2ccco2)c(C(=O)c2ccccn2)s1)c1ccnc(N2CCCCC2)c1 [Compound 218, N-[4-(2-Furyl)-5-(pyridin-2-ylcarbonyl)thiazol-2-yl]-2-piperidinopyridine-4-carboxamide]
17 | 216 to 217 °C | O=C(Nc1nc(-c2ccco2)c(C(=O)c2ccccn2)s1)c1ccnc(N2CCOCC2)c1 [Compound 219, N-[4-(2-Furyl)-5-(pyridin-2-ylcarbonyl)thiazol-2-yl]-2-morpholinopyridine-4-carboxamide]
18 | 186 to 187 °C | Cc1ncccc1C(=O)Nc1nc(-c2ccco2)c(C(=O)c2ccccn2)s1 [Compound 221, N-[4-(2-Furyl)-5-(pyridin-2-ylcarbonyl)thiazol-2-yl]-2-methylpyridine-3-carboxamide]
19 | 210 to 215 °C | Cc1ccc(C(=O)Nc2nc(-c3ccco3)c(C(=O)c3ccccn3)s2)cn1 [Compound 222, N-[4-(2-Furyl)-5-(pyridin-2-ylcarbonyl)thiazol-2-yl]-2-methylpyridine-5-carboxamide]

Row | melting point | Compound
20 | 245 to 248 °C | Cc1cncc(C(=O)Nc2nc(-c3ccco3)c(C(=O)c3ccccn3)s2)c1 [Compound 223, N-[4-(2-Furyl)-5-(pyridine-2-ylcarbonyl)thiazol-2-yl]-5-methylpyridine-3-carboxamide]
21 | 201 to 202 °C | COc1ccc(C(=O)Nc2nc(-c3ccco3)c(C(=O)c3ccccn3)s2)c(OC)n1 [Compound 224, N-[4-(2-Furyl)-5-(pyridin-2-ylcarbonyl)thiazol-2-yl]-2,6-dimethoxypyridine-3-carboxamide]
22 | 259 to 262 °C | O=C(Nc1nc(-c2ccco2)c(C(=O)c2ccccn2)s1)c1cncc(Br)c1 [Compound 226, 5-Bromo-N-[4-(2-furyl)-5-(pyridin-2-ylcarbonyl)thiazol-2-yl]pyridine-3-carboxamide]
23 | 270 to 274 °C | O=C(Nc1nc(-c2ccco2)c(C(=O)c2ccccn2)s1)c1ccnnc1 [Compound 227, N-[4-(2-Furyl)-5-(pyridin-2-ylcarbonyl)thiazol-2-yl]pyridazine-4-carboxamide]
24 | 150 to 154 °C | O=C(Nc1nc(-c2ccco2)c(C(=O)c2ccccn2)s1)c1cnc(C2CC2)nc1 [Compound 229, 2-Cyclopropyl-N-[4-(2-furyl)-5-(pyridin-2-ylcarbonyl)thiazol-2-yl]pyrimidine-5-carboxamide]
25 | 208 to 209 °C | Cc1cnc(C(=O)Nc2nc(-c3ccco3)c(C(=O)c3ccccn3)s2)cn1 [Compound 230, N-[4-(2-Furyl)-5-(pyridine-2-ylcarbonyl)thiazol-2-yl]-5-methylpyrazine-2-carboxamide]
26 | 170 to 180 °C (dec.) | O=C(Nc1nc(-c2ccco2)c(C(=O)c2ccccn2)s1)c1cc[nH]c(=O)c1 [Compound 231, N-[4-(2-Furyl)-5-(pyridin-2-ylcarbonyl)thiazol-2-yl]-2-oxo-1,2-dihydropyridine-4-carboxamide]
27 | 269 to 270 °C | O=C(Nc1nc(-c2ccco2)c(C(=O)c2ccccn2)s1)c1ccn(Cc2ccccc2)c(=O)c1 [Compound 232, 1-Benzyl-N-[4-(2-furyl)-5-(pyridin-2-ylcarbonyl)thiazol-2-yl]-2-oxo-1,2-dihydropyridine-4-carboxamide]
28 | 280 to 285 °C | Cn1ccc(C(=O)Nc2nc(-c3ccco3)c(C(=O)c3ccccn3)s2)cc1=O [Compound 233, N-[4-(2-Furyl)-5-(pyridin-2-ylcarbonyl)thiazol-2-yl]-1-methyl-2-oxo-1,2-dihydropyridine-4-carboxamide]
29 | 211 to 212 °C | O=C(Nc1nc(-c2ccco2)c(C(=O)c2ccccn2)s1)c1ccc(Br)o1 [Compound 235, 5-Bromo-N-[4-(2-furyl)-5-(pyridin-2-ylcarbonyl)thiazol-2-yl]furan-2-carboxamide]
30 | 278 to 283 °C (dec.) | O=C(Nc1nc(-c2ccco2)c(C(=O)c2ccccn2)s1)c1ccc([N+](=O)[O-])o1 [Compound 236, N-[4-(2-Furyl)-5-(pyridin-2-ylcarbonyl)thiazol-2-yl]-5-nitrofuran-2-carboxamide]
31 | 174 to 176 °C | Cc1ccoc1C(=O)Nc1nc(-c2ccco2)c(C(=O)c2ccccn2)s1 [Compound 237, N-[4-(2-Furyl)-5-(pyridin-2-ylcarbonyl)thiazol-2-yl]-3-methylfuran-2-carboxamide]
32 | 187 to 189 °C | O=C(Nc1nc(-c2ccco2)c(C(=O)c2ccccn2)s1)c1ccoc1 [Compound 238, N-[4-(2-Furyl)-5-(pyridin-2-ylcarbonyl)thiazol-2-yl]furan-3-carboxamide]
33 | 183 to 186 °C | Cc1occc1C(=O)Nc1nc(-c2ccco2)c(C(=O)c2ccccn2)s1 [Compound 239, N-[4-(2-Furyl)-5-(pyridin-2-ylcarbonyl)thiazol-2-yl]-2-methylfuran-3-carboxamide]
34 | 195 to 198 °C | Cc1cc(C(=O)Nc2nc(-c3ccco3)c(C(=O)c3ccccn3)s2)c(C)o1 [Compound 240, N-[4-(2-Furyl)-5-(pyridin-2-ylcarbonyl)thiazol-2-yl]-2,5-dimethylfuran-3-carboxamide]
35 | 197 to 199 °C | O=C(Nc1nc(-c2ccco2)c(C(=O)c2ccccn2)s1)c1cccs1 [Compound 241, N-[4-(2-Furyl)-5-(pyridin-2-ylcarbonyl)thiazol-2-yl]thiophene-2-carboxamide]
36 | 223 to 230 °C | O=C(Nc1nc(-c2ccco2)c(C(=O)c2ccccn2)s1)c1ccno1 [Compound 242, N-[4-(2-Furyl)-5-(pyridin-2-ylcarbonyl)thiazol-2-yl]isoxazole-5-carboxamide]
37 | 209 to 213 °C | Cc1cc(C(=O)Nc2nc(-c3ccco3)c(C(=O)c3ccccn3)s2)no1 [Compound 243, N-[4-(2-Furyl)-5-(pyridin-2-ylcarbonyl)thiazol-2-yl]-5-methylisoxazole-3-carboxamide]
38 | 213 to 218 °C | O=C(Nc1nc(-c2ccco2)c(C(=O)c2ccccn2)s1)c1ccc2snnc2c1 [Compound 244, N-[4-(2-Furyl)-5-(pyridin-2-ylcarbonyl)thiazol-2-yl]-1,2,3-benzothiadiazole-5-carboxamide]
